{"source": "patent US20210269824A1", "about": "“VIRAL VECTOR FOR TREATING AUTOIMMUNE DISEASE AND DIABETES AND CONSTRUCTION METHOD AND APPLICATION THEREOF” (Guangzhou Huazhen Pharmaceutical Co., Ltd., priority 2017, published 2021)", "system": "peripheral blood CD4 T-cells of patients with type 1 diabetes", "assay": "Differentiation of peripheral blood CD4 T-cells (Th1, Th2, Th17, Treg) after in vitro treatment, flow cytometry", "assay_type": "cell-based, human", "conditions": "100 μM, 24 h in vitro, lymphocytes of type 1 diabetes patients", "method": "(1) 5 ml peripheral blood was extracted from patients and normal humans separately, diluted twice with PBS of pH 7.2, and then mixed with lymphocyte separation solution Lymphoprep (Axis-Shield, Norway), centrifuged at 3500 rpm for 20 min, then the lymphocytes were taken out and cultured in RPMI1640 medium (purchased from Gibco) to obtain the cultured lymphocytes. The above cultured lymphocytes were treated in vitro with DHA (docosahexaenoic acid) at a final concentration of 100 μM, EPA (eicosapentaenoic acid) at a final concentration of 100 μM, and AA (arachidonic acid) at a final concentration of 100 μM for 24 h, respectively. After treating, changes in intracellular cytokines of CD4 T-cells in the above lymphocytes were detected. (The above DHA, EPA and AA are all purchased from Sigma).\n(2) labeling of intracellular cytokines of CD4 T-cells: The lymphocytes (number up to 1×10^5) from patients and normal humans in the above steps were placed to different marked tubes. Labeled fluorescent monoclonal antibodies CD3 (0.1 μg) and CD8 (0.1 μg) were added into each tube. Then 1 ml paraformaldehyde having a concentration of 4% by weight was added into each tube, mixed well and incubated at room temperature (20° C.-30° C.) for 20 min. 1 ml intraprep permeabilization reagent, i.e. 0.5% saponin, was added, incubated at room temperature (20° C.-30° C.) for 30 min, then centrifuged for 5 min at 300 g, 4° C. to obtain a supernatant and a precipitate. The supernatant was removed, and 80 μl 0.5% saponin was added to re-suspend the precipitate to obtain suspensions. The obtained suspensions were labeled respectively with IFN-γ fluorescent monoclonal antibody (0.1 μg), IL-17 fluorescent monoclonal antibody (0.1 μg), IL-4 fluorescent monoclonal antibody (0.1 μg), and Foxp3 fluorescent monoclonal antibody (0.1 μg), and incubated in dark place at 4° C. for 1 h (for the suspension labeled with Foxp3 fluorescent monoclonal antibody, incubation and rupture took 8 h). The labeled cells were washed three times with 0.5% saponin, centrifuged for 5 min at 300 g, 4° C. to obtain a supernatant and a precipitate. The supernatant was removed, and the precipitate was fixed with paraformaldehyde having a mass concentration of 1%. After 24 h, percentages of Th1, Th2, Th17 and Treg cells were analyzed with a flow cytometer Accuri-C6. The antibodies and instruments used in the above steps were all purchased from BD Bioscience.\nThe CON in FIG. 2 represents a control group, i.e. the lymphocytes of peripheral blood from normal humans not treated with DHA, EPA or AA. The CON in FIG. 3 represents a control group, i.e. the lymphocytes of peripheral blood from patients not treated with DHA, EPA, or AA. In FIG. 2, figures A, B, C, D, and E show percentages of Th1, Th2, Th1/Th2, Th17 and Treg cells in peripheral blood CD4 T-cells of normal subjects, respectively, and figures F, G, H, I and J show percentages of Th1, Th2, Th1/Th2, Th17 and Treg cells in peripheral blood CD4 T-cells of patients, respectively. In FIG. 3, figures A, B, C, and D show percentages of transcription factors T-bet, GATA3, RORγT, and Foxp3 in peripheral blood CD4 T-cells of patients, respectively. As shown in FIGS. 2-3, in peripheral blood CD4 T-cells of patients with type 1 diabetes treated with DHA, EPA and AA respectively, the percentages of Th1 and Th17 cells decreased, and the percentages of Th2 and Treg cells increased, and the ratio of Th1/Th2 and the ratio of T17/Treg were rebalanced."}
{"smiles": "CCCCC/C=C\\C/C=C\\C/C=C\\C/C=C\\CCCC(=O)O", "note": "[AA, arachidonic acid]", "values": [{"measurement": "ratio of T17/Treg", "value": "rebalanced"}, {"measurement": "ratio of Th1/Th2", "value": "rebalanced"}, {"measurement": "percentage of Th1 cells", "setting": "vs untreated", "value": "decreased"}, {"measurement": "percentage of Th2 cells", "setting": "vs untreated", "value": "increased"}, {"measurement": "percentage of Th17 cells", "setting": "vs untreated", "value": "decreased"}, {"measurement": "percentage of Treg cells", "setting": "vs untreated", "value": "increased"}]}
